One data set relates to mice. As to the kind of experiment: Tolerance after intravenous administration in mice. The class given is in vivo. Particulars: mice (three), 30 mg/kg.
Data set [1] deals with Thrombocyte aggregation (collagen-induced). In words: Collagen-induced platelet aggregation in platelet-rich plasma (Born and Cross method). Format: cell-based. Particulars: Homo sapiens, 10 min, platelet-rich plasma of healthy volunteers, 10 minutes incubation at 37° C., compounds of general formula I, read-out: Inhibition of platelet aggregation EC50. The procedure:
2. Antithrombotic activity Thrombocyte aggregation is measured using the Born and Cross method (J. Physiol. 170: 397 (1964)) in platelet-rich plasma taken from healthy volunteers. To inhibit coagulation the blood is mixed with 3.14% sodium citrate in a ratio by volume of 1:10. Collagen-induced aggregation The pattern of the decrease in optical density of the platelet suspension is photometrically measured and recorded after the addition of the aggregation-triggering substance. The rate of aggregation is determined from the angle of inclination of the density curve. The point on the curve where there is maximum light transmittance is used to calculate the optical density. The amount of collagen used is as small as possible but sufficient to produce an irreversible reaction curve. Standard commercial collagen produced by Hormonchemie of Munich is used. Before the addition of the collagen the plasma is incubated for 10 minutes with the test substance at 37° C. From the measurements obtained, an EC50 is determined graphically, indicating a 50% change in the optical density in terms of the inhibition of aggregation. B. Antithrombotic effect Platelet aggregation is measured by the method of Born and Cross (J. Physiol. 170, 397 (1964)) in platelet-rich plasma from healthy test subjects. For anticoagulation, sodium citrate 3.14% is added to the blood in the ratio 1:10 by volume. Collagen-induced aggregation The course of the decrease in optical density of the platelet suspension is measured and recorded photometrically after addition of the aggregation-inducing substance. The rate of aggregation is established from the angle of inclination of the density plot. The point on the plot at which the transmission of light is a maximum is used to calculate the optical density. The amount of collagen is chosen to be as small as possible but sufficient for the reaction plot to have an irreversible course. The collagen commercially obtainable from Hormonchemie, Munich, is used. Before the addition of collagen the plasma is in each case incubated with the substance at 37° C. for 10 minutes. An EC50 which relates to a 50% change in the optical density in the sense of inhibition of aggregation is determined graphically from the measured results.

The subject of data set [2] is collagen-induced thrombocyte aggregation. As to the kind of experiment: Inhibition of collagen-induced thrombocyte aggregation ex vivo after oral administration. Format: in vivo. Particulars: Rhesus monkeys; oral administration of 1 mg/kg.
A further data set deals with Human thrombocytes. As to the kind of experiment: Inhibition of the binding of 3H-BIBU 52 to human thrombocytes (platelets). Particulars: human thrombocytes in plasma; 3H-BIBU 52 5 nM; 20 minutes, ambient temperature; read-out: 3H-BIBU 52-binding test IC50. The procedure: 1. Inhibition of the binding of ^3 H-BIBU 52 to Human thrombocytes […] Case 5/1093-FL) and various concentrations of the test substance. The free and bound ligand are separated by centrifuging and quantitatively measured by scintillation counting. From the measurements obtained the inhibition of ^3 H-BIBU 52 binding caused by the test substance is determined. In order to do this, donor blood is taken from an anticubital vein and anti-coagulated with trisodium citrate (final concentration 13 mM). The blood is centrifuged for 10 minutes at 170×g and the supernatant platelet-rich plasma (PRP) is removed. The remaining blood is centrifuged vigorously once more in order to recover plasma. The PRP is diluted with autologous plasma 1:10. 750 μl are incubated for 20 minutes at ambient temperature with 50 μl of physiological saline solution, 100 μl of test substance solution, 50 μl of ^14 C-sucrose (3700 Bq) and 50 μl of ^3 H-BIBU 52 (final concentration: 5 nM). In order to measure the non specific binding, 5 μl of BIBU 52 (final concentration 30 μM) are used instead of the test substance. […] The pellet is dissolved in 500 μl of 0.2N NaOH, 450 μl are mixed with 2 ml of scintallator and 25 μl of 5N HCl, and measured. The residual plasma remaining in the pellet is determined from the ^14 C-content, and the bound ligand is determined from the ^3 H-measurement. After substracting the non specific binding, the pellet activity is plotted against the concentration of the test substance and the concentration for 50% inhibition of binding is determined. A. Inhibition of the binding of ^3 H-BIBU 52 to human platelets […] The free and bound ligand is separated by centrifugation and determined quantitatively by scintillation counting. The inhibition of ^3 H-BIBU 52 binding by the test substance is determined from the measurements. For this purpose, donor blood is taken from an antecubital vein and anticoagulated with trisodium citrate (final concentration 13 mM). The blood is centrifuged at 170×g for 10 minutes, and the supernatant platelet-rich plasma (PRP) is removed. The remaining blood is thoroughly centrifuged once again to obtain plasma. The PRP is diluted 1:10 with autologous plasma. […] are incubated with […] of physiological saline, […] of test substance solution, […] of ^14 C-sucrose (3700 Bq) and 50 ml of ^3 H-BIBU 52 (final concentration: 5 nM) at room temperature for 20 minutes. To measure the nonspecific binding, 5 ml of BIBU 52 (final concentration: […]) are used in place of the test substance. […] The pellet is dissolved in 500 ml of 0.2N NaOH, and 450 ml are mixed with 2 ml of scintillator and 25 ml of 5N HCl and measured. The remaining plasma still present in the pellet is determined from the ^14 C content, and the bound ligand is determined from the ^3 H measurement. After subtraction of the nonspecific binding, the activity in the pellet is plotted against the concentration of test substance, and the concentration for 50% inhibition of binding is found.

Where a name gives a salt, the structure may show the parent alone.

On to `CN1CCc2ccc(N3CCN([C@H]4CC[C@H](CCC(=O)O)CC4)C3=O)cc2CC1.Cl` [Example 19, 1-[trans-4-(2-Carboxyethyl)cyclohexyl]-3-(3-methyl-2,3,4,5-tetrahydro-1H-3-benzazepin-7-yl)-imidazolidin-2-one-hydrochloride], for which, in the data set on mice, the “deaths / tolerance after intravenous administration” value is recorded as “none of the three test animals died”. Moreover, the half-maximal effective concentration (EC50) (in general, the concentration that produces a half-maximal response) in data set [1] is 230 nM. In addition, the “duration of inhibition of collagen-induced thrombocyte aggregation ex vivo” value in data set [2] is on record as “more than 8 hours”. Further, the IC50 – broadly, the point on the concentration scale where inhibition reaches its midpoint – in the data set with Human thrombocytes worked out at 59 nM.
In the case of `CN1CCc2ccc(N3CCN(c4ccc(CCC(=O)O)cc4)C3=O)cc2CC1` [8(1), 1-[4-(2-carboxyethyl)phenyl]-3-(3-methyl-2,3,4,5-tetrahydro-1H-3-benzazepin-7-yl)-imidazolidin-2-one-hydrochloride×1.5 water], the “deaths / tolerance after intravenous administration” value in the data set on mice was “none of the three test animals died”. For the same compound, the EC50 in data set [1] amounted to 150 nM. Besides, the IC50 with Human thrombocytes turned out to be 36 nM.

The values above are taken from patent US5827849A, “Cyclic dericatives, pharmaceutical compositions containing these compounds and processes for preparing them” (Karl Thomae GmbH, priority 1993, dated 1998).
